Source: US20180369241A1, “TREATMENT OF CANCER WITH DNAPK INHIBITORS” (Celgene Corporation, priority 2015, published 2018)

What was measured:
[1] = system: VCaP xenograft tumors; format: in vivo, mice
Text: (§1) FIG. 10 provides: Body weight measurements of LNCaP-AR xenograft mice after treatment with NU7441 (panel A); Growth curves of VCaP xenograft tumors with various doses of Compound 1 (administered once daily via oral gavage, 5 times per week for 6 weeks) or vehicle (panel B); Body weight measurements of VCaP xenograft mice after treatment with various Compound 1 doses (panel C); and Growth curves of PC3 xenograft tumors treated with Compound 1 or vehicle (panel D). All graphs are mean±S.E.M. *=p<0.05 compared to vehicle.

[2] = system: C4-2 cells; experiment: Boyden chamber migration and invasion assay, crystal violet quantification; format: cell-based
Text: (§2) FIG. 2 provides: Representative images (200×) and crystal violet quantification of migration (panel A) and invasion (panel B) of C4-2, LNCaP-AR and PC3 cells in Boyden chamber assays after DNAPK knockdown (siRNA) or inhibition (NU7441); C4-2, LNCaP-AR and PC3 cell growth curves after DNAPK inhibition (NU7441) (panel C) or knockdown (siRNA) (panel D); and DNAPK knockdown by siRNA relative to non-targeting (siNTC) control (panel E). *p<0.05, […] compared to respective controls. All graphs are mean±S.D.
(§3) FIG. 4 provides: Expression of Wnt pathway genes after DNAPK knockdown (panel A) or inhibition (NU7441) (panel B) in LNCaP-AR cells; Immunoblot analyses of DNAPK, phospho-DNAPK (pDNAPK), active beta catenin (βcatenin), and cMyc levels in LNCaP-AR and C4-2 cells after DNAPK knockdown (siDNAPK) or inhibition (NU7441) with or without Wnt3A stimulation (panels C-D); Representative images (200×) and crystal violet quantification of LNCaP-AR and C4-2 cell invasion and migration after DNAPK inhibition (NU7441 or Compound 1) with or without Wnt3A stimulation (panel E); and Representative images (200×) and crystal violet quantification of enzalutamide-resistant LNCaP-AR (LNCaP-AR-enza-res) cell invasion and migration after DNAPK inhibition (NU7441 or Compound 1) or continued enzalutamide treatment (Enza) (panel F). All graphs are mean±S.D. *=p<0.05 compared to respective controls. Enza=enzalutamide. Enza-res=enzalutamide resistant. RQ=relative quantity. siNTC=non-targeting siRNA control.

[3] = system: LNCaP-AR cells; experiment: as above; format: cell-based
Text: as §2, §3

[4] = system: PC3 xenograft tumors; experiment: PC3 xenograft tumor growth; format: in vivo
Text: as §1

[5] = system: LNCaP-AR xenografts; format: in vivo; settings: for median tumor tripling time: enzalutamide 10 mg/kg, Compound 1 2 mg/kg, vehicle 15 days
Method: (§4) FIG. 6 provides: Growth curves of LNCaP-AR xenografts in castrated mice treated daily with vehicle (black, n=5) or 25 mg/kg NU7441 (gray, n=6) (panel A); Fold change in final tumor volume (panel B); Kaplan-Meier curves of freedom from tumor doubling time with vehicle or NU7441 (25 mg/kg) treatment of LNCaP-AR xenograft tumors (panel C); Growth curves of LNCaP-AR xenograft tumors with 5 times weekly oral gavage enzalutamide (10 mg/kg, n=16), Compound 1 (2 mg/kg, n=14), Compound 1+enzalutamide (n=14), or vehicle (n=14) treatment. Bar graph represents change in final tumor volume compared to starting tumor volume (panel D); Kaplan-Meier curves of freedom from tumor tripling with enzalutamide, Compound 1, enzalutamide+Compound 1, or vehicle treatment of LNCaP-AR xenograft tumors (panel E); Expression of select Wnt pathway target genes in human primary prostate tumor explants treated with NU7441 (n=6) or vehicle (panel F); and Representative images of Ki67 immunostaining of human primary prostate tumor explants treated with NU7441 (n=6) or vehicle; Ki67-positive nuclei are indicated with arrows (panel G). All graphs are mean±S.E.M. *=p<0.05 compared to respective control, #=p<0.05 for enzalutamide compared to Compound 1+enzalutamide, **=p<0.01 for Compound 1 compared to vehicle.
as §1

[6] = system: LNCaP-AR-MDVR cells; experiment: Invasion and migration of enzalutamide-resistant LNCaP-AR cells, crystal violet quantification; format: cell-based
Text: as §3
FIG. 9 provides: Expression of Wnt pathway target genes in LNCaP-AR cells grown in enzalutamide until resistance (LNCaP-AR-enza-res) relative to LNCaP-AR cells grown in vehicle (DMSO) (panel A); and Expression of AR or AR-target genes FKBP5 and KLK3 (PSA) in LNCaP-AR-enza-res cells after treatment with 10 μM enzalutamide (panel B). GAPDH was used as internal reference, bars are mean±S.D. *=p<0.05. RQ=relative quantity.

[7] = system: PC3 cells; experiment: Boyden chamber migration and invasion assay, crystal violet quantification; format: cell-based; settings: PC3 cells (AR-negative)
Text: as §2

[8] = system: Wnt pathway genes in C4-2 cells; experiment: Expression of Wnt pathway genes after DNAPK inhibition; format: cell-based
Text: FIG. 8 provides: Expression of Wnt pathway genes in C4-2 cells after inhibition (NU7441) (panel A) or knockdown (panel B) of DNAPK; and Expression of Notch pathway genes in LNCaP-AR, PC3 and C4-2 cells after knockdown of DNAPK (panel C). GAPDH was used as internal reference, bars are mean±S.D. *=p<0.05. RQ=relative quantity.

[9] = system: Wnt pathway genes in LNCaP-AR cells; experiment: as above; format: cell-based
Text: as §3

[10] = system: active beta-catenin and cMyc in LNCaP-AR cells; experiment: Immunoblot of active beta catenin and cMyc with or without Wnt3A stimulation; format: cell-based; settings: baseline and Wnt3A-induced
Text: as §3

[11] = system: active beta-catenin and cMyc in C4-2 cells; experiment: as above; format: cell-based; settings: baseline and Wnt3A-induced
Text: as §3

[12] = system: TOPFLASH reporter in PC3 cells; experiment: TOPFLASH luciferase reporter activity; format: cell-based; settings: baseline and Wnt3A-induced, normalized to renilla luciferase
Text: FIG. 5 provides: Immunoblot analyses of DNAPK, KU70 and LEF1 after DNAPK immunoprecipitation (left), and LEF1 and DNAPK after LEF1 immunoprecipitation (right) in LNCaP-AR cells (panel A); TOPFLASH luciferase reporter activity in PC3 cells after DNAPK inhibition (NU7441) and/or Wnt3A stimulation; activity is normalized to renilla luciferase (panel B); and Representative images (200×) and crystal violet quantification of LNCaP-AR and C4-2 cell invasion and migration after DNAPK, LEF1 or beta catenin (CTNNB1) knockdown by siRNA. *=p<0.05 compared to respective controls, #=p<0.05 compared to Wnt3A (panel C). All graphs are mean±S.D. siNTC=non targeting siRNA control.

[13] = system: human primary prostate tumor explants; experiment: Human primary prostate tumor explants; settings: human prostate cancer explants
Method: as §4

[14] = system: C4-2 cells; experiment: Cell growth curves after DNAPK inhibition; format: cell-based
Text: as §2

[15] = system: LNCaP-AR cells; experiment: Cell growth curves after DNAPK inhibition; format: cell-based
Text: as §2

[16] = system: PC3 cells; experiment: Cell growth curves after DNAPK inhibition; format: cell-based
Text: as §2

[17] = C4-2 (CRPC) cells, baseline and Wnt3A-induced
[18] = LNCaP-AR (CRPC) cells, baseline and Wnt3A-induced

With CCN1C(=O)CNc2ncc(-c3ccc(-c4nc[nH]n4)nc3C)nc21 [Compound 1, 1-ethyl-7-(2-methyl-6-(1H-1,2,4-triazol-3-yl)pyridin-3-yl)-3,4-dihydropyrazino[2,3-b]pyrazin-2(1H)-one] the “toxicity (body weight)” value ([1]; mouse, in vivo, 2 mg/kg) was “non-toxic”, the tumor growth ([1]; various doses, once daily oral gavage, 5 times per week for 6 weeks, best observed at 2 mg/kg) was “dose-dependent reduction” and the invasion [2, 17] was “abrogated”. For the same compound, the migration [2, 17] was “abrogated”, the invasion [3, 18] was “abrogated” and the migration [3, 18] was “abrogated”. The “regression of AR-independent PC3 tumors” value [4] was “significant regression”, the “median tumor tripling time” value ([5]; 5 times weekly oral gavage) was 29.5 days and the tumor regression ([5]; pre-castrated conditions, 2 mg/kg, 5 times weekly oral gavage, comparator enzalutamide 10 mg/kg) was “significantly better tumor regression compared to enzalutamide”. The invasion [6] was “significantly reduced” and the migration [6] was “significantly reduced”.

With O=c1cc(N2CCOCC2)oc2c(-c3cccc4c3sc3ccccc34)cccc12 [NU7441] the invasion [2, 17] was “abrogated”, the migration [2, 17] was “abrogated” and the invasion ([2]; C4-2 cells (AR-positive)) was “drastically diminished”. For the same compound, the migration ([2]; C4-2 cells (AR-positive)) was “drastically diminished”, the invasion [3, 18] was “abrogated” and the migration [3, 18] was “abrogated”. The invasion ([3]; LNCaP-AR cells (AR-positive)) was “drastically diminished”, the migration ([3]; LNCaP-AR cells (AR-positive)) was “drastically diminished” and the invasion [7] was “drastically diminished”. For the same compound, the migration [7] was “drastically diminished”, the “Wnt pathway genes expression” value [8] was “robust reduction” and the “Wnt pathway genes expression” value [9] was “robust reduction”. The “levels of active beta-catenin” value [10] was “reduced”, the “levels of cMyc” value [10] was “reduced” and the “levels of active beta-catenin” value [11] was “reduced”. For the same compound, the “levels of cMyc” value [11] was “reduced”, the TOPFLASH reporter activity [12] was “significantly reduced” and the “reduction in tumor growth compared to control” value ([5]; castrated mice, 25 mg/kg daily) was 44%. The relative tumor volume ([5]; castrated mice, 25 mg/kg daily, fold change in final tumor volume, vehicle 8.57±1.45) was 4.84±1.97, the “median tumor doubling time” value ([5]; castrated mice, 25 mg/kg daily, vehicle 7 days) was 21.5 days and the “toxicity as measured by body weight” value ([5]; mouse, in vivo) was “minimal”. For the same compound, the “Wnt target gene expression” value [13] was “marked reduction”, the “proliferative index, as determined by Ki67 levels” value [13] was “marked reduction” and the proliferation [14] was “drastically diminished”. The proliferation [15] was “drastically diminished”, the proliferation [16] was “drastically diminished” and the invasion [6] was “significantly reduced”. The migration [6] was “significantly reduced”.

For CNC(=O)c1ccc(N2C(=S)N(c3ccc(C#N)c(C(F)(F)F)c3)C(=O)C2(C)C)cc1F [enzalutamide], the “median tumor tripling time” value ([5]; 5 times weekly oral gavage) was 23.5 days.
